Patent publication US12391733B2, “Stapled intracellular-targeting antimicrobial peptides to treat infection” (priority 2016, dated 2025)
Positions of bridges follow the written chain, without caps; N, C: chain ends. Non-standard residues stand in square brackets, D forms with d. Residues, ends and D or L forms follow the SMILES beside them. R8 = C=CCCCCCC[C@@](C)(N)C(=O)O; S5 = C=CCCC[C@](C)(N)C(=O)O

Experiments:
circular dichroism = conditions: 10 mM phosphate buffer; pH 7.4; ns °C; 100 uM
E. coli = assay type: cell-based, Escherichia coli; conditions: for Antimicrobial Activity NIC (μg/ml) E. coli: Table 1, microbroth dilution, refined MHB, 20-24 hours at 37° C.
Experimental: Antimicrobial Activity Assay The following microbroth dilution protocol was adapted to determine the MIC of each peptide. First, Mueller-Hinton broth (MHB) was passed through an anion exchange column to remove polyanionic species and generate refined MHB. This refined broth was then used in the standard microbroth dilution protocol devised by Hancock et al. for 96 well plates. […] Briefly, bacterial cells were grown overnight in refined MHB at 37° C. and then diluted and allowed to grow again for several hours. Serial dilutions of peptide stocks in water (10 μl) were prepared using clear round-bottom polypropylene 96-well plates. Then 90 μl of bacteria in refined MHB was added to give a final inoculum of 5×10^5 CFU/ml. The plates were then covered with porous tape to reduce evaporation, and incubated for 20-24 hours at 37° C.

[1] = system: human red blood cells (RBCs); assay type: cell-based; conditions: for % Hemolysis at 50 μg/ml: red cells of human, 1 h
Source text: One of the key obstacles that have long impeded the use of AMPs in systemic infections such as sepsis is their tendency to lyse human cells, such as red blood cells (RBCs). Thus, it is critical to minimize hemolytic activity as much as possible to achieve a therapeutic window. […] Of note, in those circumstances where hydrocarbon staples increase hemolytic activity due to increasing hydrophobicity, the alkene moiety can be modified, e.g., by dihydroxylation, to install hydrophilic residues and potentially mitigate hemolysis.
Hemolytic Activity Assay For the determination of hemolytic activity, the following protocol was applied: human blood samples were centrifuged to isolate red blood cells (RBCs), which were then washed and suspended in phosphate-buffered saline to yield a 1% (v/v) suspension. This suspension was then added to serial dilutions of peptide stocks in water in clear round-bottom polypropylene 96-well plates and the plates incubated for 1 hour at 37° C. After incubation, the plates were centrifuged and the supernatant isolated to determine the amount of hemoglobin released using a spectrophotometer (570 nm). The minimum hemolytic concentration (MHC) was determined by assessing the peptide concentration at which there was less than 1% hemoglobin release.

SMILES | helicity (circular dichroism) [%] | Antimicrobial Activity NIC (μg/ml) E. coli (E. coli) [µg/mL] | % Hemolysis at 50 μg/ml [1] [%] | antimicrobial activity (in words) (E. coli; compared to unstapled buforin II (F10W) and buforin II) | hemolytic activity (in words) [1]
CC(C)C[C@H](NC(=O)CNC(=O)[C@H](C)NC(=O)[C@H](CCCNC(=N)N)NC(=O)[C@H](CO)NC(=O)[C@H](CO)NC(=O)[C@H](CCCNC(=N)N)NC(=O)[C@@H](N)[C@@H](C)O)C(=O)N[C@@H](CCC(N)=O)C(=O)N[C@@H](Cc1c[nH]c2ccccc12)C(=O)N1CCC[C@H]1C(=O)N[C@H](C(=O)NCC(=O)N[C@]1(C)CCCCCCC=CCCC[C@@](C)(C(N)=O)NC(=O)[C@H](CCCNC(=N)N)NC(=O)[C@H](CC(C)C)NC(=O)[C@H](CC(C)C)NC(=O)[C@H](CCCNC(=N)N)NC(=O)[C@H](Cc2c[nH]cn2)NC(=O)[C@H](C(C)C)NC1=O)C(C)C [BFStap(i + 7)1] (H-TRSSRAGLQWPVG[R8]VHRLLR[S5]-NH2; staple 14-21; N-terminus and C-terminus assumed) | 16.9 | 10.4 | 16.6 | – | –
CC(C)C[C@H](NC(=O)CNC(=O)[C@H](C)NC(=O)[C@H](CCCNC(=N)N)NC(=O)[C@H](CO)NC(=O)[C@H](CO)NC(=O)[C@H](CCCNC(=N)N)NC(=O)[C@@H](N)[C@@H](C)O)C(=O)N[C@@]1(C)CCCC=CCCC[C@@](C)(C(=O)N[C@@H](CCCNC(=N)N)C(=O)N[C@H](C(=O)N[C@@H](Cc2c[nH]cn2)C(=O)N[C@@H](CCCNC(=N)N)C(=O)N[C@@H](CC(C)C)C(=O)N[C@@H](CC(C)C)C(=O)N[C@@H](CCCNC(=N)N)C(=O)N[C@@H](CCCCN)C(N)=O)C(C)C)NC(=O)[C@H](C(C)C)NC(=O)[C@@H]2CCCN2C(=O)[C@H](Cc2c[nH]c3ccccc23)NC1=O [BFStap(i + 4)7] (H-TRSSRAGL[S5]WPV[S5]RVHRLLRK-NH2; staple 9-13; N-terminus and C-terminus assumed) | 6.9 | 6.3 | 3.4 | greatest increase in antimicrobial activity | low hemolytic activity
CC(C)C[C@H](NC(=O)[C@H](CC(C)C)NC(=O)[C@H](CCCNC(=N)N)NC(=O)[C@H](Cc1c[nH]cn1)NC(=O)[C@@H](NC(=O)[C@H](CCCNC(=N)N)NC(=O)CNC(=O)[C@@H](NC(=O)[C@@H]1CCCN1C(=O)[C@H](Cc1c[nH]c2ccccc12)NC(=O)[C@H](CCC(N)=O)NC(=O)[C@]1(C)CCCC=CCCC[C@](C)(NC(=O)[C@H](CO)NC(=O)[C@H](CCCNC(=N)N)NC(=O)[C@@H](N)[C@@H](C)O)C(=O)N[C@@H](CCCNC(=N)N)C(=O)N[C@@H](C)C(=O)NCC(=O)N1)C(C)C)C(C)C)C(=O)N[C@@H](CCCNC(=N)N)C(=O)N[C@@H](CCCCN)C(N)=O [BFStap(i + 4)10] (H-TRS[S5]RAG[S5]QWPVGRVHRLLRK-NH2; staple 4-8; N-terminus and C-terminus assumed) | 20.9 | 100 | 2.4 | – | –
CC(C)C[C@H](NC(=O)CNC(=O)[C@H](C)NC(=O)[C@H](CCCNC(=N)N)NC(=O)[C@H](CO)NC(=O)[C@H](CO)NC(=O)[C@H](CCCNC(=N)N)NC(=O)[C@@H](N)[C@@H](C)O)C(=O)N[C@@H](CCC(N)=O)C(=O)N[C@@H](Cc1c[nH]c2ccccc12)C(=O)N1CCC[C@H]1C(=O)N[C@H](C(=O)NCC(=O)N[C@@]1(C)CCCC=CCCC[C@@](C)(C(=O)N[C@@H](CC(C)C)C(=O)N[C@@H](CCCNC(=N)N)C(=O)N[C@@H](CCCCN)C(N)=O)NC(=O)[C@H](CCCNC(=N)N)NC(=O)[C@H](Cc2c[nH]cn2)NC(=O)[C@H](C(C)C)NC1=O)C(C)C [BFStap(i + 4)4] (H-TRSSRAGLQWPVG[S5]VHR[S5]LRK-NH2; staple 14-18; N-terminus and C-terminus assumed) | 6 | 29.2 | 2.9 | – | –
CC(C)C[C@H](NC(=O)[C@H](CC(C)C)NC(=O)[C@H](CCCNC(=N)N)NC(=O)[C@H](Cc1c[nH]cn1)NC(=O)[C@@H](NC(=O)[C@H](CCCNC(=N)N)NC(=O)CNC(=O)[C@@H](NC(=O)[C@@H]1CCCN1C(=O)[C@H](Cc1c[nH]c2ccccc12)NC(=O)[C@H](CCC(N)=O)NC(=O)[C@]1(C)CCCC=CCCCCCC[C@@](C)(N)C(=O)N[C@@H](CCCNC(=N)N)C(=O)N[C@@H](CO)C(=O)N[C@@H](CO)C(=O)N[C@@H](CCCNC(=N)N)C(=O)N[C@@H](C)C(=O)NCC(=O)N1)C(C)C)C(C)C)C(=O)N[C@@H](CCCNC(=N)N)C(=O)N[C@@H](CCCCN)C(N)=O [BFStap(i + 7)10] (H-[R8]RSSRAG[S5]QWPVGRVHRLLRK-NH2; staple 1-8) | 0 | >100 | 2.3 | – | –
CC(C)C[C@H](NC(=O)CNC(=O)[C@H](C)NC(=O)[C@H](CCCNC(=N)N)NC(=O)[C@H](CO)NC(=O)[C@H](CO)NC(=O)[C@H](CCCNC(=N)N)NC(=O)[C@@H](N)[C@@H](C)O)C(=O)N[C@@H](CCC(N)=O)C(=O)N[C@@H](Cc1c[nH]c2ccccc12)C(=O)N1CCC[C@H]1C(=O)N[C@H](C(=O)NCC(=O)N[C@@H](CCCNC(=N)N)C(=O)N[C@@]1(C)CCCC=CCCC[C@@](C)(C(=O)N[C@@H](CCCNC(=N)N)C(=O)N[C@@H](CCCCN)C(N)=O)NC(=O)[C@H](CC(C)C)NC(=O)[C@H](CCCNC(=N)N)NC(=O)[C@H](Cc2c[nH]cn2)NC1=O)C(C)C [BFStap(i + 4)3] (H-TRSSRAGLQWPVGR[S5]HRL[S5]RK-NH2; staple 15-19; N-terminus and C-terminus assumed) | 4.3 | 25.0 | 2.9 | – | –
CC(C)C[C@@H]1NC(=O)CNC(=O)[C@H](C)NC(=O)[C@@](C)(NC(=O)[C@H](CO)NC(=O)[C@H](CO)NC(=O)[C@H](CCCNC(=N)N)NC(=O)[C@@H](N)[C@@H](C)O)CCCC=CCCC[C@@](C)(C(=O)N[C@@H](Cc2c[nH]c3ccccc23)C(=O)N2CCC[C@H]2C(=O)N[C@H](C(=O)NCC(=O)N[C@@H](CCCNC(=N)N)C(=O)N[C@H](C(=O)N[C@@H](Cc2c[nH]cn2)C(=O)N[C@@H](CCCNC(=N)N)C(=O)N[C@@H](CC(C)C)C(=O)N[C@@H](CC(C)C)C(=O)N[C@@H](CCCNC(=N)N)C(=O)N[C@@H](CCCCN)C(N)=O)C(C)C)C(C)C)NC1=O [BFStap(i + 4)9] (H-TRSS[S5]AGL[S5]WPVGRVHRLLRK-NH2; staple 5-9; N-terminus and C-terminus assumed) | 11.7 | 50.0 | 2.5 | – | –
CC(C)C[C@H](NC(=O)CNC(=O)[C@]1(C)CCCC=CCCC[C@](C)(NC(=O)[C@@H](N)[C@@H](C)O)C(=O)N[C@@H](CO)C(=O)N[C@@H](CO)C(=O)N[C@@H](CCCNC(=N)N)C(=O)N1)C(=O)N[C@@H](CCC(N)=O)C(=O)N[C@@H](Cc1c[nH]c2ccccc12)C(=O)N1CCC[C@H]1C(=O)N[C@H](C(=O)NCC(=O)N[C@@H](CCCNC(=N)N)C(=O)N[C@H](C(=O)N[C@@H](Cc1c[nH]cn1)C(=O)N[C@@H](CCCNC(=N)N)C(=O)N[C@@H](CC(C)C)C(=O)N[C@@H](CC(C)C)C(=O)N[C@@H](CCCNC(=N)N)C(=O)N[C@@H](CCCCN)C(N)=O)C(C)C)C(C)C [BFStap(i + 4)12] (H-T[S5]SSR[S5]GLQWPVGRVHRLLRK-NH2; staple 2-6; N-terminus and C-terminus assumed) | 5.3 | >100 | 2.4 | – | –
CC(C)C[C@@H]1NC(=O)CNC(=O)[C@H](C)NC(=O)[C@H](CCCNC(=N)N)NC(=O)[C@H](CO)NC(=O)[C@H](CO)NC(=O)[C@](C)(NC(=O)[C@@H](N)[C@@H](C)O)CCCCCCC=CCCC[C@@](C)(C(=O)N[C@@H](Cc2c[nH]c3ccccc23)C(=O)N2CCC[C@H]2C(=O)N[C@H](C(=O)NCC(=O)N[C@@H](CCCNC(=N)N)C(=O)N[C@H](C(=O)N[C@@H](Cc2c[nH]cn2)C(=O)N[C@@H](CCCNC(=N)N)C(=O)N[C@@H](CC(C)C)C(=O)N[C@@H](CC(C)C)C(=O)N[C@@H](CCCNC(=N)N)C(=O)N[C@@H](CCCCN)C(N)=O)C(C)C)C(C)C)NC1=O [BFStap(i + 7)9] (H-T[R8]SSRAGL[S5]WPVGRVHRLLRK-NH2; staple 2-9; N-terminus and C-terminus assumed) | 0 | 41.7 | 4.3 | – | –
CC(C)C[C@@H]1NC(=O)CNC(=O)[C@](C)(NC(=O)[C@H](CCCNC(=N)N)NC(=O)[C@H](CO)NC(=O)[C@H](CO)NC(=O)[C@H](CCCNC(=N)N)NC(=O)[C@@H](N)[C@@H](C)O)CCCCCCC=CCCC[C@@](C)(C(=O)N[C@@H](CCCNC(=N)N)C(=O)N[C@H](C(=O)N[C@@H](Cc2c[nH]cn2)C(=O)N[C@@H](CCCNC(=N)N)C(=O)N[C@@H](CC(C)C)C(=O)N[C@@H](CC(C)C)C(=O)N[C@@H](CCCNC(=N)N)C(=O)N[C@@H](CCCCN)C(N)=O)C(C)C)NC(=O)[C@H](C(C)C)NC(=O)[C@@H]2CCCN2C(=O)[C@H](Cc2c[nH]c3ccccc23)NC(=O)[C@H](CCC(N)=O)NC1=O [BFStap(i + 7)7] (H-TRSSR[R8]GLQWPV[S5]RVHRLLRK-NH2; staple 6-13; N-terminus and C-terminus assumed) | 11.6 | 22.9 | 3.0 | – | –
